From ChEMBL document CHEMBL1201862, “PubChem BioAssay data set” (2004)
Activity calls are given as the source filed them.

What was measured:
[1] = biological target: T1, High affinity choline transporter 1 (Homo sapiens, UniProt Q9GZV3); assay: human choline transporter blockers, potency – cell-based, 5-point CRC, membrane potential dye, dose response (AID 504840); type: functional
T1 sequence (Q9GZV3 whole entry): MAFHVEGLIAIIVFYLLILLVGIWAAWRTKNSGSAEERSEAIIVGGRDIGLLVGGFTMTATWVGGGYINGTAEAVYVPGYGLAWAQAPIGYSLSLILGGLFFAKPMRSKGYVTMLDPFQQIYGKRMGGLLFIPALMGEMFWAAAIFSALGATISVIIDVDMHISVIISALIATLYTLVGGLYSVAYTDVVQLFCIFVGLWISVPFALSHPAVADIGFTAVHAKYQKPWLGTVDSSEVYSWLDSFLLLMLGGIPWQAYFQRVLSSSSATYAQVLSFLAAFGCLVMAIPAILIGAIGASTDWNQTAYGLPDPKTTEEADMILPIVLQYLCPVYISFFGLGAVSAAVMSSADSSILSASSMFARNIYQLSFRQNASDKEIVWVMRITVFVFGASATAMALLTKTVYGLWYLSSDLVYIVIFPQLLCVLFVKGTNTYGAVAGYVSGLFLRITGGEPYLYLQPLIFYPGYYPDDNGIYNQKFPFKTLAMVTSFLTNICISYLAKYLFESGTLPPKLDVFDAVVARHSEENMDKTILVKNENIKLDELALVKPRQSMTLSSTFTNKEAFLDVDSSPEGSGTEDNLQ

[2] = biological target: T1, High affinity choline transporter 1; assay: human choline transporter blockers, potency – cell-based, 10-point CRC, membrane potential dye, dose response (AID 588401); type: functional;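 note: membrane potential dye fluorescence of choline-evoked depolarization via CHT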
[3] = biological target: E3 ubiquitin-protein ligase Mdm2 (Homo sapiens, UniProt Q00987); assay: MDM2-luc reporter signal enhancers, multi-concentration potency testing, MDM2 ubiquitin-protein ligase inhibitor program, whole-cell format, luminescence detection, 384-well microplate (AID 1394); type: functional;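 note: MDM2 E3 inhibitors raise luminescence so EC50 is for signal enhancement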
[4] = embryonic kidney cell viability loss – CellTiter-Glo luminescence, dry powder, set 20, cytotoxicity control, dose response (AID 1117293); type: functional, cell-based; details: HEK293
[5] = biological target: Bifunctional protein GlmU (Mycobacterium tuberculosis, UniProt P9WMN3); assay: Inhibitors of Mycobacterial Glucosamine-1-phosphate acetyl transferase (GlmU). Secondary screen.; parameters: species or system Mycobacterium tuberculosis H37Rv
cells = details: HEK293
[6] = toxicity to HepG2 liver cells – cell-based, plate reader, dry powder, set 6, cytotoxicity control, dose response (AID 743311); type: functional
[7] = toxicity to A549 lung cells – cell-based, plate reader, dry powder, set 6, cytotoxicity control, dose response (AID 743312); type: functional
[8] = biological target: Potassium channel subfamily K member 9 (Homo sapiens, UniProt Q9NPC2); assay: KCNK9 flux blockade, concentration-response – cell-based, FluxOR thallium flux, selectivity assay for TASK1 inhibitor project, SAR follow-up (AID 652211); type: functional;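 note: potency is for inhibitors of the channel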
[9] = biological target: Potassium channel subfamily K member 3 (Homo sapiens, UniProt O14649); assay: inhibition of human KCNK3 channel flux – CHO cells, FluxOR thallium flux, SAR follow-up (AID 652212); type: functional
[10] = viability loss in HEK293 kidney cells – cell-based, cherry-picks, set 5, cytotoxicity control, dose response (AID 1053117); type: functional
[11] = viability loss in A549 lung cancer cells – cell-based, cherry-picks, […], cytotoxicity control, dose response (AID 1053119); type: functional
[12] = viability loss in HepG2 hepatoma cells – cell-based, cherry-picks, set 5, cytotoxicity control, dose response (AID 1053118); type: functional
[13] = cytotoxicity in MITF-independent A375 cells – cell-based, CellTiter-Glo luminescence, dry powder, set 4, counter-screen for MITF inhibitor project, dose response (AID 624364); type: functional; details: A-375;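 note: A375 melanoma cells are MITF independent so this is a counter screen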
[14] = viability loss in MITF-independent A375 cells – cell-based, CellTiter-Glo luminescence, dry powder, set 2, counter-screen for MITF inhibitor project, dose response (AID 624489); type: functional; details: A-375;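 note: actives are compounds lowering A375 viability meaning general cytotoxicity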
[15] = Late stage assay provider results from the probe development effort to identify selective inhibitors of heat shock protein 90 (HSP90): Absorbance-based cell proliferation assay in SKBR3 cells.; type: functional; details: SK-BR-3
[16] = Late stage assay provider results from the probe development effort to identify selective inhibitors of heat shock protein 90 (HSP90): Absorbance-based cell proliferation assay in MCF7 cells.; type: functional
Caspase-6 = Caspase-6 (Homo sapiens, UniProt P55212); assay: inhibition of CASP6 peptide cleavage – biochemical, VEID-R110 fluorescence, cherry-pick, dose response (AID 720632)
[17] = biological target: Photoreceptor-specific nuclear receptor (Homo sapiens, UniProt Q9Y5X4); type: functional, cell-based;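 note: CHO-S cells with Gal4-NCOR and VP16-NR2E3 two-hybrid luciferase reporter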
[18] = blockers of CRF-binding protein–CRF-R2 complex – cell-based, uHTS hits, 384-well, dose response (AID 651639); type: functional, Homo sapiens; details: read-out: IC50_Mean
[19] = biological target: T2, Corticotropin-releasing factor receptor 2/Corticotropin-releasing factor-binding protein (Homo sapiens, UniProt P24387+Q13324); assay: activators of CRF receptor 2 with binding protein – uHTS hits, confirmation (AID 602473); type: functional; details: read-out: EC50_Mean
T2 sequence (Q13324 whole entry): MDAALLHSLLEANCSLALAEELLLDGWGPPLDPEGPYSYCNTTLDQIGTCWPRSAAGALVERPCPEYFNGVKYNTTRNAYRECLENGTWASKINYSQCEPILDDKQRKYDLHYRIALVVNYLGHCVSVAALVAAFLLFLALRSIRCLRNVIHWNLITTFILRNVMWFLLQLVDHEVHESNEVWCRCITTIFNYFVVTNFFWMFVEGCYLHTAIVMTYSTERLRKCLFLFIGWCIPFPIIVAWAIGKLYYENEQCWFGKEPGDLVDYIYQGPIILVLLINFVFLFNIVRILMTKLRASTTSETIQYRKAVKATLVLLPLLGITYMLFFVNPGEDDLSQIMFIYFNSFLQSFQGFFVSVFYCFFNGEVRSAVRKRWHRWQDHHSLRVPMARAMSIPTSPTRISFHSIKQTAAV
T2 sequence (P24387 whole entry): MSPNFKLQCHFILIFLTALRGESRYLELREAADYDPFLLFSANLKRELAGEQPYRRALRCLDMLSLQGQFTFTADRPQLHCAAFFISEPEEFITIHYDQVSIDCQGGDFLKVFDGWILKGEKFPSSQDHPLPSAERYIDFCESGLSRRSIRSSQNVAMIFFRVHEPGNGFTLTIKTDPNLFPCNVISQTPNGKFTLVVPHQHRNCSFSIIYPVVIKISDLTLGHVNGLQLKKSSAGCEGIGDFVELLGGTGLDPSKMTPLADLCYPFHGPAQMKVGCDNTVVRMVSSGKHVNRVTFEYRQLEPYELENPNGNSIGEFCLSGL

[20] = biological target: T2, Corticotropin-releasing factor receptor 2/Corticotropin-releasing factor-binding protein; assay: Dose Response confirmation of uHTS hits for small molecule antagonists of the CRF-binding protein and CRF-R2 receptor complex.; type: functional; details: read-out: IC50_Mean
[21] = biological target: Sphingosine 1-phosphate receptor 2 (Homo sapiens, UniProt O95136); assay: Dose Response Cell Based Assay for Antagonists of the S1P2 Receptor. [Related pubchem assays: 856, 736 ]; type: functional
[22] = anti-trypanosomal activity in BESM host cells – imaging, CA-I/72 strain, bovine embryo skeletal muscle, dry powder, dose response (AID 651885); type: functional, cell-based
[23] = mouse embryonic fibroblast toxicity – cell-based, plate reader, dry powder, set 2, cytotoxicity control, dose response (AID 652280); type: functional; details: NIH3T3
[24] = T. cruzi growth inhibition in host cells, dose response, cell-based, plate reader, dry powder, set 2 (AID 652275); type: functional

Potassium channel subfamily K member 9, sequence (Q9NPC2 whole entry): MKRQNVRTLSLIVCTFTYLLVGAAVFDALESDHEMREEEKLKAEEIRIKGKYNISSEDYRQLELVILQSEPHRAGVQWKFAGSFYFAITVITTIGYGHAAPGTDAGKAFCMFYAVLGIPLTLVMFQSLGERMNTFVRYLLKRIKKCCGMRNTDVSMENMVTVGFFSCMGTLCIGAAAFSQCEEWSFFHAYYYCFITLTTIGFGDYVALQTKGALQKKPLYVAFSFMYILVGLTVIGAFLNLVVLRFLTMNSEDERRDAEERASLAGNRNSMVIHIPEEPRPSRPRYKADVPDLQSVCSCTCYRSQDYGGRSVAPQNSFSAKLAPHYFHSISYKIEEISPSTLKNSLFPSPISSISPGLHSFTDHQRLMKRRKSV
Potassium channel subfamily K member 3, sequence (O14649 whole entry): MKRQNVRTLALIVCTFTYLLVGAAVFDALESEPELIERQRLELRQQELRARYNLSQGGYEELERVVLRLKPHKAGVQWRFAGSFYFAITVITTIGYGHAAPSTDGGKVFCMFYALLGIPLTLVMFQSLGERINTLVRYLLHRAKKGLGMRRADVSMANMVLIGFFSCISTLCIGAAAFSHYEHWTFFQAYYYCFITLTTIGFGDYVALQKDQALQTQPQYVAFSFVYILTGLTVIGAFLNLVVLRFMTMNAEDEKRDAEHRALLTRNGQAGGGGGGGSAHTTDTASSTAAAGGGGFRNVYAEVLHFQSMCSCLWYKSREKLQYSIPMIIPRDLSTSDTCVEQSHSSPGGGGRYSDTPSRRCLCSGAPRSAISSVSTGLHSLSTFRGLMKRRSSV
Photoreceptor-specific nuclear receptor, sequence (Q9Y5X4 whole entry, the tested form may be a part): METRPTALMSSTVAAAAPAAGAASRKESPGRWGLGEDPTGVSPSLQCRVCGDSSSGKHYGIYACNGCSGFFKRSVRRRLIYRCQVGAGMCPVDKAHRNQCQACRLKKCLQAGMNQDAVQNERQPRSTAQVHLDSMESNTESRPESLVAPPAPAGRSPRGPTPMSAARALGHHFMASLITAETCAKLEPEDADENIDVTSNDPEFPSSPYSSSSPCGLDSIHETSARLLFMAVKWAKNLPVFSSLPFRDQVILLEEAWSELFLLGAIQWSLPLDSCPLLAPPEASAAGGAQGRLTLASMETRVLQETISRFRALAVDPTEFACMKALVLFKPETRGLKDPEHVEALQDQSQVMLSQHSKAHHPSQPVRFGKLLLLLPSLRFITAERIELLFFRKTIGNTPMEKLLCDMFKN
Caspase-6, sequence (P55212 24-179 limits assumed): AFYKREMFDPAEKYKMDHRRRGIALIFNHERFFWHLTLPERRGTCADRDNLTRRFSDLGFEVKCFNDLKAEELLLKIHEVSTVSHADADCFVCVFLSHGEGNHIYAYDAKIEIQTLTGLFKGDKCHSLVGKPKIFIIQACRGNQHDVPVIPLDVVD
Caspase-6, sequence (P55212 194-293 limits assumed): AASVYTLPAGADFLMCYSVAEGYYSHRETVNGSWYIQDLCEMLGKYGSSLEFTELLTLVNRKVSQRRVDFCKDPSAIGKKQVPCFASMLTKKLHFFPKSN
Bifunctional protein GlmU, sequence (P9WMN3 whole entry): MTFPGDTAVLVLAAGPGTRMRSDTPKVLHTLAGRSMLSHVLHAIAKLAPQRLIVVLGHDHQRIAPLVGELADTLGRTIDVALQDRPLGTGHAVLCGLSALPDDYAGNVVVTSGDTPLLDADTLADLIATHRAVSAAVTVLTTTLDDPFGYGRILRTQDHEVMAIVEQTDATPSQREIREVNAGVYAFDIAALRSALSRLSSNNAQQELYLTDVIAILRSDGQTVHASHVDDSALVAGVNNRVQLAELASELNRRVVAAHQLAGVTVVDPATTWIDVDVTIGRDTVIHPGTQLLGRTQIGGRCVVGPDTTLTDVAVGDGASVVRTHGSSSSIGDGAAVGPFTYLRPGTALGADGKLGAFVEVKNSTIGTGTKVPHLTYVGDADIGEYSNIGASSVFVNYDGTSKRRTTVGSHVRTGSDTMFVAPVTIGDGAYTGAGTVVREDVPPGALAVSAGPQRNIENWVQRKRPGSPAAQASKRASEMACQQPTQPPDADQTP
Sphingosine 1-phosphate receptor 2, sequence (O95136 whole entry): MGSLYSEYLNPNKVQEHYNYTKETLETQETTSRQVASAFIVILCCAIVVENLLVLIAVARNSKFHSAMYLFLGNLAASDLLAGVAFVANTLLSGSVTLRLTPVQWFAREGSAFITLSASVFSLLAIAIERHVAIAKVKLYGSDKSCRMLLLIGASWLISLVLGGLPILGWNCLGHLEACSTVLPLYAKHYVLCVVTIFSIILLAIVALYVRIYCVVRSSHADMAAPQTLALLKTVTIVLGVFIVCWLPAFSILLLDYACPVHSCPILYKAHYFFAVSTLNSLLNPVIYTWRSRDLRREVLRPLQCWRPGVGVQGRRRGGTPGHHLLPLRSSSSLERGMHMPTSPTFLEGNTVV
E3 ubiquitin-protein ligase Mdm2, sequence (Q00987 whole entry): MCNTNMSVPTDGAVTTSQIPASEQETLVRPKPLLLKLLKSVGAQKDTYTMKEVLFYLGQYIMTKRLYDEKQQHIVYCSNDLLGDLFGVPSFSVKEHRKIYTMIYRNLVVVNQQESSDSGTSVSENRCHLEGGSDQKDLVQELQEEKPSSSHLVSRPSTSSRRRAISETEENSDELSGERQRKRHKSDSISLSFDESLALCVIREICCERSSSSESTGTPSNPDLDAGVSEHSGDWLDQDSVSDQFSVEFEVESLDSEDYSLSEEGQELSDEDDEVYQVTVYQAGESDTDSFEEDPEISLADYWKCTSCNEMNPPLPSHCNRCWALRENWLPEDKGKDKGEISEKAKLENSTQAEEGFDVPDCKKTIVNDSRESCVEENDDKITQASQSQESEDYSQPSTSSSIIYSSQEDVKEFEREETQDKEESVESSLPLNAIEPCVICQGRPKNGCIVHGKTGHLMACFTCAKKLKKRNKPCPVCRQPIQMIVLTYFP

In the case of CCOC(=O)c1sc(=S)n(-c2ccccc2)c1N(C(C)=O)C(C)=O, the IC50 [1] is reported as 8.98 µM (active), the IC50 [2] is reported as 5.01 µM (active) and the EC50 [3] is reported as 0.29 µM (not active).
In the case of N#Cc1ccc(S(=O)(=O)Nc2cc(C(F)(F)F)ccc2N2CCCCC2)cc1, the AC50 [4] is reported as 46.1 µM (active).
In the case of Cc1nc(Nc2ccc(C(=O)O)cc2)nc(Nc2ccc(C(=O)O)cc2)c1[N+](=O)[O-], the IC50 [5] is reported as 211 µM (active).
With Cc1cc2ncn(CCOc3ccc4c(c3)CCC4)c2cc1C the AC50 (cells) was 33 µM (active), the AC50 [6] was > 52 µM (inactive) and the AC50 [7] was 24.1 µM (active).
In the case of CCOc1ccccc1NC(=O)c1cccc(NC(=O)c2cccc(OC)c2)c1, the IC50 [8] is reported as 2.33 µM (active) and the IC50 [9] is reported as 0.005 µM (active).
In the case of CO[C@H]1CN(C)C(=O)c2cc(NC(=O)Nc3ccc(Cl)c(Cl)c3)ccc2OC[C@H](C)NC[C@@H]1C, the AC50 [10] is reported as 12.8 µM (active), the AC50 [11] is reported as 12.9 µM (active) and the AC50 [12] is reported as 13 µM (active).
For O=C(NC1=C(c2ccc(OC(F)(F)F)cc2)C(=O)c2ccccc2C1=O)c1ccccc1F, the AC50 [13] was 34.4 µM (active) and the AC50 [14] was 30.5 µM (active).
In the case of O=C1OC(=O)/C(=C\NCCC2=CCCCC2)C=C1Br, the IC50 [15] is reported as 8 µM (active) and the IC50 [16] is reported as 3 µM (active).
In the case of CC(C)c1ccc(C(c2c(O)oc3ccccc3c2=O)c2c(O)oc3ccccc3c2=O)cc1, the AC50 (Caspase-6) is reported as 6.05 µM (active), the IC50 [17] is reported as 0.975 µM (active) and the IC50 [18] is reported as 5.18 µM (active). For the same molecule, the EC50 [19] was > 53 µM (inactive) and the IC50 [20] was 3.45 µM (active).
For O=C(Nc1ccc(F)cc1)c1sc(-c2ccccc2)nc1C(F)(F)F, the IC50 [21] was > 30 µM (not active).
With C[C@@H]1CN([C@@H](C)CO)C(=O)c2cc(-c3cccnc3)cnc2O[C@H]1CN(C)Cc1ccc(Oc2ccccc2)cc1 the IC50 [22] was > 20 µM (inactive), the AC50 [23] was 11.9 µM (active) and the AC50 [24] was 1.95 µM (active).
